{"source": "patent US20090298752A1", "about": "“APLIDINE TREATMENT OF CANCERS” (PHARMA MAR, S.A., priority 1999, published 2009)", "key": {"[1]": {"system": "primary gastric tumour specimens", "assay": "in vitro activity on primary gastric tumour specimens", "format": "cell-based, human", "description": "(§1) Different model systems were evaluated to provide the basis for further clinical work. Selective antitumour activities were seen against two histologically different solid tumours: human gastric and prostate carcinomas. Potent in vitro activity to primary gastric tumour specimens or Hs746T gastric tumour cells is evident with IC30 values of 146 and 450 pM, respectively. […] activities were evaluated in nude rodents using sc implanted tumour fragments or hollow fibres (HF) containing tumour cells."}, "[2]": {"system": "VEGF mRNA", "assay": "VEGF mRNA in MOLT-4 cells (Rnase protection)", "format": "cell-based, human"}, "[3]": {"system": "CT-1, CT-2 and HT-29 cell lines", "settings": "cited from earlier work"}, "[4]": {"system": "Prostate PC-3", "assay": "sc xenograft, prostate tumour, mouse", "format": "in vivo", "settings": "for Activity (% T/C.): xenograft, mouse", "description": "as §1\n(§2) Follow-up studies necessitated using rats for iv infusions. With this variation, a 24 hr iv infusion schedule produced similar activities against HF gastric (20%) and HF prostate (31%) tumour cells. Cytotoxicity was also found using a 5 day iv infusion schedule against HF prostate tumour cells (33%)."}, "[5]": {"target": "T1, ornithine decarboxylase (Homo sapiens, UniProt P11926)", "T1 construct": "endogenous in cells; host or cells: CT-1, CT-2 and HT-29 colon cell lines", "T1 sequence (P11926 whole entry)": "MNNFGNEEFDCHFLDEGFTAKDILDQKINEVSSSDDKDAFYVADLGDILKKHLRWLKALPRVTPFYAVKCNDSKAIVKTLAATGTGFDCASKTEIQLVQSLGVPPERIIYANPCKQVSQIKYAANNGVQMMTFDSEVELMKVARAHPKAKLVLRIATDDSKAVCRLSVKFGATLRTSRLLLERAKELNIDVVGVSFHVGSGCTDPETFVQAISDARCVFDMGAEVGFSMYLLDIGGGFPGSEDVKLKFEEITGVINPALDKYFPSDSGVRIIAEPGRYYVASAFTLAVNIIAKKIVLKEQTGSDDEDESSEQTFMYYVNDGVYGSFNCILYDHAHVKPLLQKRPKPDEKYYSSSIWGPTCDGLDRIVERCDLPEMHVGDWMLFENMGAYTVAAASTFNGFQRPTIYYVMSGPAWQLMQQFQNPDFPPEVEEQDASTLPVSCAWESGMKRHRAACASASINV", "settings": "all three cell lines; cited from earlier work"}, "[6]": {"system": "VEGF promoter", "assay": "VEGF promoter luciferase reporter in MOLT-4 cells", "format": "cell-based, human", "settings": "luciferase after 24 hours vs renilla", "description": "Cells were transfected with the VEGF promoter (spanning the first 1000 bases upstream the starting site linked to luciferase reporter gene and with a control plasmid containing the renilla reporter gene. Cells were then treated with different concentrations of aplidine and luciferase activity was measured after 24 hours and compared to renilla activity."}, "[7]": {"system": "PC-3 prostate tumour cells", "assay": "in vitro activity on prostate tumour cells", "format": "cell-based, human", "description": "as §1"}, "[8]": {"assay": "Phase I, 24 h infusion weekly x3 q4wk: toxicity and pharmacokinetics", "format": "in vivo, human", "description": "A phase I trial was performed using 24 hour infusion weekly×3 followed by 1 wk rest. 32 patients (median age 58 yrs, median ECOG 1) with advanced, previously treated solid tumours have been treated. They have received 64 courses (median/pt: 2 (1-6)) across 8 dose levels: 133 (3 pts), 266 (3 pts), 532 (3 pts), 1000 (3 pts), 2000 (3 pts), 3000 (3 pts), 4500 (4 pts) and 3750 mcg/m^2/wk (10 pts). 2 out of 3 evaluable patients had DLT at 4500 mcg/m^2/wk: grade (G) 4 reversible neuromuscular toxicity (biopsy prevent type II muscular atrophy) and G4 CK increase (1 pt), and transient G3 transaminitis (1 pt). Other toxicities included G 1-2 malaise (most patients treated at ≧3000 mcg/m^2/wk), muscle cramps, G 1-2 emesis (responsive to antiemetics) and injection site reaction (very common and concentration-dependent). All patients have been sampled for PK analysis by a LC/MS/MS method. Pharmacokinetics are linear and the profiles fit a 2 compartment open model. […] Maintained plasma levels >1 ng/ml (active in vitro) were obtained at doses ≧3000 mcg/m^2. […] Four additional patients had minor responses or stable disease for >4 months. […] The recommended dose for future trials, 3750 mcg/m^2/wk×3, administered through a central vein catheter, is feasible and associated with mild toxicity.\nPlasma aplidine concentrations were determined by liquid chromatography/tandem mass spectography with a limit of quantitation of 0.25 ng/mL and a broad linear range up to 16.00 ng/mL\nA total of 15 samples were drawn up to 24 hours after the end of infusion"}, "[9]": {"system": "Gastric MRI-H254", "assay": "sc xenograft, gastric tumour, mouse", "format": "in vivo", "settings": "for Activity (% T/C.): xenograft, mouse", "description": "as §1, §2"}, "[10]": {"system": "AP-1", "assay": "gel retardation assay, transcription factor binding", "format": "biochemical", "settings": "nuclear extracts incubated with aplidine, 60 min", "description": "Nuclear extracts were incubated with different aplidine concentrations and labelled oligonucleotides for 60 min. Using gel retardation assay the binding of HIF-1 or AP-1 has been monitored."}, "[11]": {"system": "Gastric MRI-H254", "assay": "sc hollow fibre (HF), gastric tumour cells, rat", "format": "in vivo", "settings": "24 hr.iv inf., 0.7 mg/kg", "description": "as §1, §2"}, "[12]": {"system": "VEGF", "assay": "VEGF secretion from IGROV-1", "format": "cell-based, human"}, "[13]": {"system": "Hs746T gastric tumour cells", "assay": "in vitro activity on gastric tumour cells", "format": "cell-based, human", "description": "as §1"}, "[14]": {"settings": "ip administration, range over regimens"}, "[15]": {"settings": "DL V, 2000 mcg/m^2/wk, 3 patients"}, "[16]": {"settings": "DL VI, 3000 mcg/m^2/wk, 3 patients"}, "[17]": {"settings": "DL VII (MTD), 4500 mcg/m^2/wk, 4 patients"}, "[18]": {"settings": "DL VIII (RD), 3750 mcg/m^2/wk, 13 patients"}}, "note": "pIC50: −log10 of the molar value. Where “and” joins values, the source holds several entries; their conditions need not be identical. Identical values can stand only once. Entries after “also recorded” stand apart in the source; their conditions may differ."}
{"substance": "aplidine", "values": [{"measurement": "IC30", "setting": "[1]", "value": 0.146, "unit": "nM"}, {"measurement": "half life of VEGF mRNA, in words", "setting": "[2]", "value": "does not change the half life of VEGF mRNA"}, {"measurement": "levels of VEGF mRNA, in words", "setting": "[2]; 20 nM aplidine", "value": "strong decrease; also recorded: decrease in the mRNA encoding for VEGF"}, {"measurement": "cytotoxic activity", "setting": "[3]", "value": "dose-dependent cytotoxic activity"}, {"measurement": "Optimal activities, xenografted prostate tumours", "setting": "[4]; [14]", "value": "25-38%"}, {"measurement": "Activity (% T/C.)", "setting": "[4]; q4dx3.ip, 1.05 mg/kg", "value": 38, "unit": "% T/C"}, {"measurement": "Activity (% T/C.)", "setting": "[4]; q4dx3.ip, 2.10 mg/kg", "value": 34, "unit": "% T/C"}, {"measurement": "Activity (% T/C.)", "setting": "[4]; qd9.ip, 0.62 mg/kg", "value": 30, "unit": "% T/C"}, {"measurement": "Activity (% T/C.)", "setting": "[4]; qd9.ip, 1.25 mg/kg", "value": 25, "unit": "% T/C"}, {"measurement": "ornithine decarboxylase activity", "setting": "[5]", "value": "decreased ornithine decarboxylase activity"}, {"measurement": "activity of transfected VEGF promoter, in words", "setting": "[6]", "value": "dose not decrease the activity of VEGF promoter; also recorded: did not decrease the transcription of VEGF"}, {"measurement": "pIC50", "setting": "[7]", "value": 8.47}, {"measurement": "evaluable patients with DLT", "setting": "[8]; 4500 mcg/m^2/wk", "value": "2 out of 3"}, {"measurement": "Recommended Dose", "setting": "[8]; 24 h infusion weekly x3 q4wk", "value": 3750, "unit": "μg/m^2/wk×3"}, {"measurement": "Inj. Site reaction G2 (worst toxicity per patient)", "setting": "[8]; DL II, 266 mcg/m^2/wk, 3 patients", "value": 1}, {"measurement": "Asthenia G2 (worst toxicity per patient)", "setting": "[8]; DL III, 532 mcg/m^2/wk, 3 patients", "value": 1}, {"measurement": "Inj. Site reaction G2 (worst toxicity per patient)", "setting": "[8]; DL IV, 1000 mcg/m^2/wk, 3 patients", "value": 1}, {"measurement": "Inj. Site reaction G2 (worst toxicity per patient)", "setting": "[8]; [15]", "value": 1}, {"measurement": "Nausea G2 (worst toxicity per patient)", "setting": "[8]; [15]", "value": 1}, {"measurement": "Asthenia G2 (worst toxicity per patient)", "setting": "[8]; [16]", "value": 1}, {"measurement": "Asthenia G3 (worst toxicity per patient)", "setting": "[8]; [16]", "value": 1}, {"measurement": "Inj. Site reaction G2 (worst toxicity per patient)", "setting": "[8]; [16]", "value": 1}, {"measurement": "Nausea G3 (worst toxicity per patient)", "setting": "[8]; [16]", "value": 1}, {"measurement": "Asthenia G2 (worst toxicity per patient)", "setting": "[8]; [17]", "value": 1}, {"measurement": "CPK elevation G4 (worst toxicity per patient)", "setting": "[8]; [17]", "value": 1}, {"measurement": "Inj. Site reaction G2 (worst toxicity per patient)", "setting": "[8]; [17]", "value": 1}, {"measurement": "Myositis G3 (worst toxicity per patient)", "setting": "[8]; [17]", "value": 1}, {"measurement": "Transaminitis G3 (worst toxicity per patient)", "setting": "[8]; [17]", "value": 1}, {"measurement": "Asthenia G2 (worst toxicity per patient)", "setting": "[8]; [18]", "value": 3}, {"measurement": "Hypersensitivity G3 (worst toxicity per patient)", "setting": "[8]; [18]", "value": 1}, {"measurement": "Inj. Site reaction G2 (worst toxicity per patient)", "setting": "[8]; [18]", "value": 3}, {"measurement": "Nausea G2 (worst toxicity per patient)", "setting": "[8]; [18]", "value": 2}, {"measurement": "Transaminitis G3 (worst toxicity per patient)", "setting": "[8]; [18]", "value": 2}, {"measurement": "Transaminitis G4 (worst toxicity per patient)", "setting": "[8]; [18]", "value": 1}, {"measurement": "plasma levels", "setting": "[8]; DLs 1000 and 2000 mcg/m^2/w", "value": "~1", "unit": "ng/mL"}, {"measurement": "dose limiting toxicities (DLTs)", "setting": "[8]; Example 3: 16 patients, 133-3000 mcg/m^2/wk x3", "value": "No dose limiting toxicities"}, {"measurement": "Maximum Tolerated Dose", "setting": "[8]; Example 4", "value": 4500, "unit": "μg/m^2/wk×3"}, {"measurement": "elimination t ½", "setting": "[8]; Example 4, preliminary data", "value": "10 to 24", "unit": "h"}, {"measurement": "plasma levels", "setting": "[8]; Example 4, preliminary data", "value": "> 1", "unit": "ng/mL"}, {"measurement": "MTD", "setting": "[8]; Example 11", "value": 4500, "unit": "mcg/m^2/wk"}, {"measurement": "recommended dose for future trials", "setting": "[8]; Example 11, central vein catheter", "value": 3750, "unit": "mcg/m^2/wk×3"}, {"measurement": "MTD", "setting": "[8]; Example 12", "value": 4500, "unit": "mcg/m^2/week×3"}, {"measurement": "haematological toxicity", "setting": "[8]; Example 12", "value": "No haematological toxicity"}, {"measurement": "recommended dose for future trials", "setting": "[8]; Example 12", "value": 3750, "unit": "mcg/m^2/week×3"}, {"measurement": "maintained plasma levels", "setting": "[8]; doses ≧3000 mcg/m^2", "value": "> 1", "unit": "ng/mL"}, {"measurement": "Blood cell accumulation as compared to plasma", "setting": "[8]; in vivo", "value": "2-8 fold"}, {"measurement": "dose from which potentially active plasma levels are reached", "setting": "[8]; in vivo", "value": "≥ 2000", "unit": "mcg/m^2"}, {"measurement": "coefficient of variation of clearance (Cl)", "setting": "[8]; interpatient variability", "value": 45, "unit": "%"}, {"measurement": "Vss", "setting": "[8]; median (quartiles)", "value": "611 L and 611 (434-733) L"}, {"measurement": "clearance (Cl)", "setting": "[8]; median (quartiles)", "value": "0.47 L/min and 0.47 (0.40-0.56) L/min"}, {"measurement": "elimination t ½", "setting": "[8]; median (quartiles)", "value": "18.8 h and 18.8 (15.3-25.4) h"}, {"measurement": "Optimal activities, xenografted gastric tumours", "setting": "[9]; [14]", "value": "17-20%"}, {"measurement": "Activity (% T/C.)", "setting": "[9]; q4dx3.ip, 1.25 mg/kg", "value": 18, "unit": "% T/C"}, {"measurement": "Activity (% T/C.)", "setting": "[9]; qd9.ip, 1.05 mg/kg", "value": 17, "unit": "% T/C"}, {"measurement": "Activity (% T/C.)", "setting": "[9]; qd9.ip, 2.1 mg/kg", "value": 19, "unit": "% T/C"}, {"measurement": "binding of AP-1 to consensus DNA sequence", "setting": "[10]", "value": "does not block the binding; also recorded: did not change the ability"}, {"measurement": "Activity (% T/C.)", "setting": "[11]", "value": 20, "unit": "% T/C"}, {"measurement": "secretion of VEGF, in words", "setting": "[12]", "value": "reduce the secretion of VEGF"}, {"measurement": "IC30", "setting": "[13]", "value": 0.45, "unit": "nM"}]}
